The values below come from PubChem BioAssay AID1996.

Each structure is given as a SMILES string. ≈ marks a conversion by molar mass, not a printed value.

For this data set the following is noted: buffer; pH 7.4; 200.0 µM.
With `CC1CCN(C(=O)/C(=C\c2ccccc2)NC(=O)c2ccccc2)CC1`, the kinetic solubility (usually the concentration staying in solution when a stock, usually in DMSO, is diluted into the medium) turned out to be 52.2 µg/mL (≈ 150 µM). To `COc1ccc(CC(=O)Nc2ccc(OC)nc2)cc1` belongs above 40.8 µg/mL.

For `N#Cc1ccc(C(=O)Nc2ccc3ccccc3c2)cc1`, the kinetic solubility is 0.4 µg/mL (≈ 1.47 µM).

On to `CC(=O)Nc1nc2c(ccc3ccccc32)s1`, for which the solubility (kinetic) stood at 0.9 µg/mL (≈ 3.71 µM). Against the preceding molecule, the solubility kinetic is about 2.2-fold higher. To `COc1ccc(CNC(=O)Cc2cccs2)cc1OC` belongs 42.6 µg/mL (≈ 146 µM). In the case of `COc1ccc(C(=O)NCCN2CCCC2)cc1[N+](=O)[O-]`, the solubility (kinetic) was above 44 µg/mL.

In turn, `COc1ccc(OC)c(-c2nc3ccccc3nc2-c2ccccc2)c1` came in with a kinetic solubility of 0.6 µg/mL (≈ 1.75 µM). To `Cc1cccc(OCC(=O)NCCCNC(=O)c2ccccn2)c1` belongs 45.4 µg/mL (≈ 139 µM).

In the case of `CNC(=O)c1cc2c(cn1)[nH]c1ccccc12`, the kinetic solubility turned out to be 27.5 µg/mL (≈ 122 µM). To `COc1cccc(OCC(=O)O/N=C(\N)c2ccncc2)c1` belongs 39.9 µg/mL (≈ 132 µM); to `Cc1ccc(C)c(OCCC(=O)NCCc2ccc(F)cc2)c1`, 31.5 µg/mL (≈ 99.9 µM); to `C=CCSc1nc(=O)n2ccc(C)cc2n1`, 31.7 µg/mL (≈ 136 µM). To `CNc1ccc([N+](=O)[O-])cc1C(=O)O` belongs 26.7 µg/mL (≈ 136 µM). Then `CC(C)[C@H](NC(=O)c1ccco1)C(=O)OCC(=O)c1ccc(Br)s1`, with above 62.1 µg/mL. The molecule `Cc1ccc(C)c(N2CCN(c3ccc([N+](=O)[O-])cn3)CC2)c1` returned a kinetic solubility below 0.2 µg/mL. As to `CCOC(=O)c1sc(NC(=O)OC)c(C(=O)OC)c1C`, the solubility (kinetic) is below 0.6 µg/mL. For `NC(=O)C1CCN(c2ccc(S(=O)(=O)N3CCCCC3)cc2[N+](=O)[O-])CC1`, the kinetic solubility was 7.6 µg/mL (≈ 19.2 µM).

`CCCCCC(=O)OC(CN1CCCC1=O)C[NH+]1CCCCCC1.[Cl-]` (centres undefined) had a solubility (kinetic) above 56.2 µg/mL.

With `COc1cc2ccccc2cc1C(=O)Nc1ccccc1C`, the kinetic solubility is below 0.6 µg/mL. Molecule `O=C(O/N=C1\CCCc2ccccc21)C1CC1` showed a kinetic solubility of 28.3 µg/mL (≈ 123 µM). Then `O=c1oc(/C=C/c2ccc([N+](=O)[O-])s2)nc2ccccc12`, with 0.5 µg/mL (≈ 1.67 µM). Then `Cc1ccc(NC(=O)c2cnccn2)c(Br)c1`, with 4.2 µg/mL (≈ 14.4 µM). Then `CCC(=O)Nc1ccc(NC(=O)c2ccc3ccccc3c2)cc1`, with below 0.3 µg/mL; and `CCOc1ccc(C2C(C#N)=C(N)Oc3nc[nH]c(=O)c32)cc1` (centres undefined), with above 46.5 µg/mL.

`Cc1csc(SCC(=O)NC2CCS(=O)(=O)C2)n1` (centres undefined) yielded a kinetic solubility above 46 µg/mL.

In turn, `O=C(CN1N=C(c2ccccc2)CCC1=O)NCc1cccs1` registered a solubility (kinetic) above 49.1 µg/mL.

`Cc1ccc(N2C(=O)CC(=O)NC2=O)cc1Cl` had a solubility (kinetic) above 37.9 µg/mL. `O=C(Nc1cc(S(=O)(=O)Nc2ccccc2Cl)ccc1O)c1ccc(F)cc1F` had a kinetic solubility of 3.3 µg/mL (≈ 7.52 µM). `Cc1nc2ccccc2c2c1C(=O)N(c1cccc(C(=O)O)c1)C2=O` gave a kinetic solubility above 49.8 µg/mL. Then `CCCCNC(=O)OCCSCCS(=O)(=O)c1ccc(Cl)cc1`, with 0.9 µg/mL (≈ 2.37 µM); and `CCC(=O)N/C(=N/c1nc(C)cc(C)n1)Nc1ccccc1`, with 13 µg/mL (≈ 43.7 µM); and `Cn1cnc([N+](=O)[O-])c1Sc1nc2ccccc2[nH]1`, with 5.1 µg/mL (≈ 18.5 µM). To `Cc1ccc(C)c(N2CCN(C3CCCC(C)C3)CC2)c1` (centres undefined) belongs 23.3 µg/mL (≈ 81.3 µM).

Consider `COC(=O)c1cc(C)nc(Sc2ccccc2NC(C)=O)n1`, for which the kinetic solubility was found to be 41.6 µg/mL (≈ 131 µM).

In turn, `CC1CCN(S(=O)(=O)c2ccc3[nH]c(=O)[nH]c3c2)CC1` yielded a kinetic solubility of 3.2 µg/mL (≈ 10.8 µM).

`Cc1ccc(NC(=O)CN(C)C(=O)/C=C/c2cccc(F)c2)cc1` came in with a solubility (kinetic) of 2.2 µg/mL (≈ 6.74 µM). This solubility kinetic and that of the molecule before are within 1.5-fold of each other. In turn, `CC(=O)c1cccc(Nc2nc(-c3sc(C)nc3C)cs2)c1` yielded a kinetic solubility of 1 µg/mL (≈ 3.04 µM). This solubility kinetic lies about 2.2-fold lower than the previous one. `Cc1cc(-c2ccccc2C(=O)Nc2ccccc2O)on1` had a solubility (kinetic) above 44.1 µg/mL. Then `Cc1cc(NC(=O)NC(C)(C(F)(F)F)C(F)(F)F)no1`, with above 45.8 µg/mL. Then `O=C1NC2(CCCCCC2)C(=O)N1Cc1c(F)cccc1Cl`, with 9.6 µg/mL (≈ 29.6 µM); and `CC(C)Cn1cnc2c1c(=O)n(C)c(=O)n2C`, with above 35.4 µg/mL; and `COc1ccc(C(=O)C(C)OC(=O)c2sc(C)nc2C)cc1` (centres undefined), with 35.8 µg/mL (≈ 112 µM). To `N/C(=N\OC(=O)CSc1ccccc1)c1ccccn1` belongs above 43.1 µg/mL. Regarding `CCN(CC(=O)NC1CCCC1)S(=O)(=O)c1ccc(F)cc1`, the kinetic solubility is above 49.3 µg/mL. Then `COC(=O)c1ccc(N2CCOCC2)c(NC(=O)c2ccco2)c1`, with 2.8 µg/mL (≈ 8.48 µM).

The molecule `O=C(Nc1ccc(Oc2cccc(C(F)(F)F)c2)nc1)c1ccco1` registered a solubility (kinetic) of 1.2 µg/mL (≈ 3.45 µM).

On to `COC1C(C)=C(C)C(=O)N1Cc1ccccc1` (centres undefined), for which the solubility (kinetic) came to 33.9 µg/mL (≈ 147 µM).

Take `Cc1ccc(N2CCN(C(=O)c3cccs3)CC2)cc1C`: the kinetic solubility turned out to be 43.8 µg/mL (≈ 146 µM).

In turn, `CC(=O)C1=C(C)N2CCN=C2S1` displayed a kinetic solubility above 27.3 µg/mL. Then `Cc1cc(C(C)(C)C)ccc1NC(=O)CC(C)(C)CC(=O)O`, with above 45.8 µg/mL; and `CN1CCN(c2nc(-c3ccccc3O)nc3ccccc23)CC1`, with 1 µg/mL (≈ 3.12 µM). On to `O=C(Nc1cccc2ccccc12)c1cccc(F)c1`, for which the solubility (kinetic) is 5.8 µg/mL (≈ 21.9 µM). This solubility kinetic lies about 5.8-fold higher than the previous one.

`CCN(CC(=O)Nc1ccc(C)c(F)c1)CC(=O)NC(C)C` gave a solubility (kinetic) above 46.4 µg/mL. With `C=C(C)[C@@H]1CC=C(CN2CCN(Cc3ccccc3)CC2)CC1`, the kinetic solubility was 9.9 µg/mL (≈ 31.9 µM). Then `COc1ccc(CN2CCCCCC2)cc1`, with 26.2 µg/mL (≈ 119 µM).

Take `Cc1oc(-c2cccc(Br)c2)[n+]([O-])c1C`: the kinetic solubility was above 40.2 µg/mL. To `COc1ccc(NC(=O)CCCc2nc3ccccc3c(=O)[nH]2)cc1Cl` belongs 14.5 µg/mL (≈ 39 µM); to `Cc1ccc(C(O)c2ccc(-n3ccnc3)cc2)cc1` (centres undefined), 39.5 µg/mL (≈ 149 µM). Then `CC(C)CC(=O)Nc1ccc2c(c1)nc(CCN1CCCCC1)n2C`, with above 51.4 µg/mL. Take `Nc1nc(SCc2ccccc2)c2[nH]cnc2n1`: the solubility (kinetic) came to 38.4 µg/mL (≈ 149 µM). As for `CCN(CC)C(=O)C1CCCN(Cc2nc(-c3cnccn3)no2)C1` (centres undefined), the solubility (kinetic) turned out to be 40.4 µg/mL (≈ 117 µM). This solubility kinetic and that of the molecule before are within 1.5-fold of each other. To `C[C@H](NC(=O)N1CCn2c1nc1ccccc12)C(=O)NC1CC1` belongs above 47 µg/mL.

Turning to `CCOc1ccc(CCNC(=O)COC(=O)c2ccc(C)s2)cc1OCC`, the solubility (kinetic) worked out at 23.7 µg/mL (≈ 60.5 µM). Turning to `O=C1CCC([N+](=O)[O-])C(c2ccc(C(F)(F)F)cc2)N1` (centres undefined), the kinetic solubility was above 43.2 µg/mL. To `CC1CCN(CCn2c(=S)[nH]c3cc4c(cc3c2=O)OCO4)CC1` belongs 29.4 µg/mL (≈ 84.6 µM). `O=C(c1cc(Cl)ccc1Cl)N1CCc2ccccc21` yielded a solubility (kinetic) of 12.1 µg/mL (≈ 41.4 µM). Then `CC(C)(C)NC(=O)CSc1nc2cc(S(=O)(=O)N3CCCCC3)ccc2o1`, with 3.7 µg/mL (≈ 8.99 µM); and `O=C(CNC1CCCCC1)Nc1cccc([N+](=O)[O-])c1`, with 31.4 µg/mL (≈ 113 µM). Turning to `COC(=O)[C@@H](NC(=O)/C=C/c1ccc(OC)cc1)C(C)C`, the solubility (kinetic) is above 43.7 µg/mL.

For `CCOC(=O)Cn1c(=O)n(Cc2ccccc2)c(=O)c2cccnc21`, the solubility (kinetic) was 7.6 µg/mL (≈ 22.4 µM).

Turning to `O=C(CCc1nc(-c2ccc(F)cc2)no1)Nc1cccc(C(=O)NC2CC2)c1`, the kinetic solubility was 9.7 µg/mL (≈ 24.6 µM). Then `O=C(COc1ncnc2cc(Cl)ccc12)c1ccccc1`, with 3.2 µg/mL (≈ 10.7 µM); and `CCn1ccc(C(=O)N2CCN(c3ncccn3)CC2)n1`, with above 43 µg/mL. Then `Brc1cccc(-c2cnco2)c1`, with 4 µg/mL (≈ 17.9 µM); and `CC(C)Sc1ccc([N+](=O)[O-])cc1C(=O)Nc1ccncc1`, with 40.8 µg/mL (≈ 129 µM).

As for `Cc1ccc(CNC(=O)c2cccnc2Sc2cccc(Cl)c2)cc1`, the kinetic solubility turned out to be 0.5 µg/mL (≈ 1.36 µM).

In the case of `Cc1cc(Cl)ccc1NC(=O)CCN1C(=O)NC(C)(C)C1=O`, the solubility (kinetic) was above 48.6 µg/mL. Then `CC(C)(CN1CCOCC1)NS(=O)(=O)c1ccccc1`, with 38 µg/mL (≈ 127 µM); and `Cc1cc(C)cc(NC(=O)N(CCC#N)Cc2cccs2)c1`, with 4.8 µg/mL (≈ 15.3 µM); and `Cc1ccc(S(=O)(=O)NCCNc2ccc(Br)c(C)c2)cc1`, with 0.6 µg/mL (≈ 1.57 µM). Then `COc1ccccc1CNc1ncccc1[N+](=O)[O-]`, with 1.3 µg/mL (≈ 5.01 µM); and `CN(CC(=O)Nc1ccccc1Cl)C(=O)COC(=O)c1cccs1`, with above 55 µg/mL; and `COc1cccc(/C=N/c2nc3ccccc3[nH]2)c1O`, with 33.2 µg/mL (≈ 124 µM). Consider `CCc1ccccc1NC(=O)c1cc([N+](=O)[O-])ccc1N1CCOCC1`, for which the solubility (kinetic) is above 53.3 µg/mL. To `COc1cc(C#N)c(NC(=O)CN2CCC(C(N)=O)CC2)cc1OC` belongs above 52 µg/mL; to `COCCCNc1nc2nonc2nc1NCCSC`, 37.1 µg/mL (≈ 124 µM).

For the molecule `CN1CCC(C)(O)C2CCCCC21` (centres undefined), the solubility (kinetic) was above 27.5 µg/mL. To `OCCNc1c2ccccc2nc2ccccc12` belongs 33.7 µg/mL (≈ 141 µM); to `COc1ccc(C(=O)COC(=O)c2ccc(N(C)C)cc2)cc1`, below 0.7 µg/mL. Then `COc1ccc(OCC(O)CN2CC(C)OC(C)C2)cc1.Cl` (centres undefined), with above 49.8 µg/mL; and `C=CCOc1ccc(CNc2ccc3[nH]c(=O)[nH]c3c2)cc1`, with 7.9 µg/mL (≈ 26.7 µM). Then `CN1CC(=O)N(CC(=O)Nc2ccc3c(c2)CCC3)C1=O`, with above 43.1 µg/mL.

Take `C=CCN(C(=O)COC(=O)c1cc[n+]([O-])cc1)c1nc(-c2ccccc2)cs1`: the solubility (kinetic) turned out to be 6.1 µg/mL (≈ 15.4 µM).

The molecule `O=C(NC1CC1)c1nc(Cn2ccc([N+](=O)[O-])n2)no1` yielded a solubility (kinetic) above 41.7 µg/mL. To `CC(C)n1c(COc2ccccc2)nc2ccccc21` belongs 24.1 µg/mL (≈ 90.5 µM); to `COc1ccc(CCNC(=O)c2cnc(C)cn2)cc1`, above 40.7 µg/mL. `Cc1ccc(NC(=O)Nc2cc(C(F)(F)F)c[nH]c2=O)cc1` displayed a solubility (kinetic) of 0.4 µg/mL (≈ 1.29 µM). Then `S=C(Nc1ccc2c(c1)OCCO2)Nc1ccc2c(c1)OCO2`, with above 49.6 µg/mL; and `O=S(=O)(NCCc1csc(-c2ccccc2)n1)c1cccnc1`, with above 51.8 µg/mL; and `CCN1CCN(CCC(=O)Nc2cc(C)ccc2C)CC1`, with above 43.4 µg/mL. To `COc1cc(OC)c(C(=O)NCC2CCCO2)cc1OC` (centres undefined) belongs above 44.3 µg/mL.

`COc1cc(NC(=O)Cn2c([N+](=O)[O-])cnc2C)c(OC)cc1Cl` showed a kinetic solubility of 45.3 µg/mL (≈ 128 µM). As to `Cc1ccc(CN2C(=O)CSC(C)C2=O)cc1` (centres undefined), the kinetic solubility was above 37.4 µg/mL. To `COc1ccccc1-c1cc(-c2ccccc2)nc(=O)[nH]1` belongs above 41.7 µg/mL.
